Marks after values point to notes of the source that are not given here.
What was measured:
UGT1A6 (insect) = target: T1, UGT1A6 (insect) (Homo sapiens, UniProt P19224); experiment: 5-HT glucuronidation by recombinant UGT1A6; type: biochemical; conditions: for 5-HT glucuronidation, % of the control activity (measured at 0 mM): UGT1A6 (insect), 4 mM 5-HT, n=3
T1 sequence (P19224 27-532): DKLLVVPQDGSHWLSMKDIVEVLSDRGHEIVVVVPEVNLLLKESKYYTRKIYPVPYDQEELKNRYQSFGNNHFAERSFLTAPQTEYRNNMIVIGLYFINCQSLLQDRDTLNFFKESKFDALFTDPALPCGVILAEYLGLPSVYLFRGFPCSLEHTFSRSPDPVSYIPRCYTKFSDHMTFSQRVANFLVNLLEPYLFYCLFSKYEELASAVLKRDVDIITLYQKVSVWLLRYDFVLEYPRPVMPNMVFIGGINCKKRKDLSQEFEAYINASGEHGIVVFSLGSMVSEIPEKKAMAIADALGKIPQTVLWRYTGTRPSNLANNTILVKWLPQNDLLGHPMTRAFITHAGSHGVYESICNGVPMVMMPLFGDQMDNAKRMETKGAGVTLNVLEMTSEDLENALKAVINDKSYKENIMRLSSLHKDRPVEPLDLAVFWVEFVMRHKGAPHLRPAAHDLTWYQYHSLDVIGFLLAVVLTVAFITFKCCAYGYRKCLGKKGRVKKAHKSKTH

rats = conditions: in vivo in rats; ref Brunelle and Verbeeck (1997); cited from earlier work
HLMs = conditions: 5 mM saccharolactone, ref Alkharfy & Frye 2001; cited from earlier work
UGT1A9 = UGT1A9 (Homo sapiens, UniProt O60656); experiment: Salicylic acid; type: biochemical; conditions: 5 mM salicylic acid, n=3
[1] = tested on: pooled human liver microsomes (pHLMs); experiment: AZT glucuronidation by pHLMs; type: biochemical; conditions: pHLM, 500 μM AZT, n=3
UGT1A4 = target: T2, UGT1A4 (Homo sapiens, UniProt P22310); experiment: Trifluoperazine glucuronidation by recombinant UGT1A4; type: biochemical; conditions: for Trifluoperazine glucuronidation, % of the control activity (measured at 0 mM): UGT1A4, 200 μM trifluoperazine, n=3
T2 sequence (P22310 29-534): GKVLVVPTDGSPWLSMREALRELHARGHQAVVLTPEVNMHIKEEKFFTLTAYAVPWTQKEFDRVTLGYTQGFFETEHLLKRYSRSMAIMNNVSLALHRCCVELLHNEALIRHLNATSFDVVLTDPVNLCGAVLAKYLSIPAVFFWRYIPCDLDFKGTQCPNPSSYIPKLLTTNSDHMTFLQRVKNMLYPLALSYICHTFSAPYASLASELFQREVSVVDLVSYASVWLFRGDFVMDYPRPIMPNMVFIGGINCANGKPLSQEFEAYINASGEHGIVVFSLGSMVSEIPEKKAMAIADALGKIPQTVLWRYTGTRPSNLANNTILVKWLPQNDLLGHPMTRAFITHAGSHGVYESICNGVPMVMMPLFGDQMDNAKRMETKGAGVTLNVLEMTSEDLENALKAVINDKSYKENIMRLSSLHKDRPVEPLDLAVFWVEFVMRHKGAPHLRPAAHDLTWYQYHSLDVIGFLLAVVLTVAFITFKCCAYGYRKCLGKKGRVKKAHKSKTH

[2] = tested on: pooled human liver microsomes (pHLMs); experiment: Salicylic acid; type: biochemical; conditions: pHLM, 5 mM salicylic acid, phenol glucuronide, n=3
[3] = tested on: pooled human liver microsomes (pHLMs); experiment: 5-HT glucuronidation by pooled human liver microsomes; type: biochemical; conditions: pHLM, 4 mM 5-HT, n=3
[4] = tested on: pooled human liver microsomes (pHLMs); experiment: Estradiol-17 glucuronidation by pHLMs; type: biochemical; conditions: pHLM, 100 μM estradiol, n=3
rat liver microsomes = conditions: 4 mM saccharolactone, ref Brunelle & Verbeeck 1993; cited from earlier work
[5] = Effect of saccharolactone on pH of 50 mM potassium phosphate incubation buffer; type: physicochemical
UGT1A1 = target: T3, UGT1A1 (Homo sapiens, UniProt P22309); experiment: Estradiol-3 glucuronidation by recombinant UGT1A1; type: biochemical; conditions: for Estradiol-3 glucuronidation, % of the control activity (measured at 0 mM): UGT1A1, 100 μM estradiol, n=3
T3 sequence (P22309 26-533): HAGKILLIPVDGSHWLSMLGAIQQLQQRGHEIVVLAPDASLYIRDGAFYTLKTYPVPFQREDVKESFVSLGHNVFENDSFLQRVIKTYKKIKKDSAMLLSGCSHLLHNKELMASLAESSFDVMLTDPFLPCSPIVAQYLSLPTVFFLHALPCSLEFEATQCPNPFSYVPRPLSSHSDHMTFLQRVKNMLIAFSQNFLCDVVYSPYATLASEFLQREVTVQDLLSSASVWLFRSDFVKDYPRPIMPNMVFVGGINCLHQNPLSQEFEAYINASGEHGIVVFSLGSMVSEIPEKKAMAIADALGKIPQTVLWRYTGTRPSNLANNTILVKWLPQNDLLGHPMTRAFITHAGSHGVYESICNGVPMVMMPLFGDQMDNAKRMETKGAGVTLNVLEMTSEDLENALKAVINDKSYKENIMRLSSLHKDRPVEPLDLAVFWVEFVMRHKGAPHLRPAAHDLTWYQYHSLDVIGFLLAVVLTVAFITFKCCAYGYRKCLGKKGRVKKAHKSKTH

Chain of UGT1A9 (O60656 26-530): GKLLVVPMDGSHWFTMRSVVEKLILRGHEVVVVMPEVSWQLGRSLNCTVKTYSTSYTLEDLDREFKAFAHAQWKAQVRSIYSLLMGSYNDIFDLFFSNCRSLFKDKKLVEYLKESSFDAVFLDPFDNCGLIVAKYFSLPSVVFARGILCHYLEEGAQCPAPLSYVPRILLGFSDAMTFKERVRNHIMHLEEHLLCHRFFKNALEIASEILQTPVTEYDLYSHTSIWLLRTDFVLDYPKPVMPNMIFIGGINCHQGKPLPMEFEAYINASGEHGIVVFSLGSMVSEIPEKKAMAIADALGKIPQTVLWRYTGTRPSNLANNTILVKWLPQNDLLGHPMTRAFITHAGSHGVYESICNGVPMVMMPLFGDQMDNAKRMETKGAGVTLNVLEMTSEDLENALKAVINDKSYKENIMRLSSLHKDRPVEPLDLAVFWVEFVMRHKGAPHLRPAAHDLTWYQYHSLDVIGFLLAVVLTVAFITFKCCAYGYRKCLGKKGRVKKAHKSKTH

SMILES: O=C(O)[C@@H](O)[C@H]1OC(=O)[C@H](O)[C@H]1O [saccharolactone, D-saccharic acid 1,4-lactone]
- 5-HT glucuronidation, % of the control activity (measured at 0 mM) (UGT1A6 (insect); 5 mM saccharolactone): 88±7%
- 5-HT glucuronidation, % of the control activity (measured at 0 mM) (UGT1A6 (insect); 20 mM saccharolactone): 96±0%
- effect on 5-hydroxytryptamine glucuronidation (UGT1A6 (insect); UGT1A6 expressed in insect cells, saccharolactone up to 20 mM): no effect
- effect on partial clearance of diflunisal acyl glucuronide (rats): increase
- effect on partial clearance of diflunisal phenol glucuronide (rats): little effect
- decrease of acetaminophen glucuronidation (HLMs): 45%
- Salicylic Acid glucuronidation, % of the control activity (measured at 0 mM) (UGT1A9; 5 mM saccharolactone): 96±7%
- Salicylic Acid glucuronidation, % of the control activity (measured at 0 mM) (UGT1A9; 20 mM saccharolactone): 99±7%
- AZT glucuronidation, % of the control activity (measured at 0 mM) ([1]; 1 mM saccharolactone): 96±2%
- AZT glucuronidation, % of the control activity (measured at 0 mM) ([1]; 2 mM saccharolactone): 98±2%
- AZT glucuronidation, % of the control activity (measured at 0 mM) ([1]; 5 mM saccharolactone): 94±2%
- AZT glucuronidation, % of the control activity (measured at 0 mM) ([1]; 10 mM saccharolactone): 94±3%
- AZT glucuronidation, % of the control activity (measured at 0 mM) ([1]; 20 mM saccharolactone): 94±1%
- Trifluoperazine glucuronidation, % of the control activity (measured at 0 mM) (UGT1A4; 5 mM saccharolactone): 90±4%
- Trifluoperazine glucuronidation, % of the control activity (measured at 0 mM) (UGT1A4; 20 mM saccharolactone): 82±5 ^a %
- inhibition at 20 mM (UGT1A4; human, pH 7.5, probe trifluoperazine): 18%
- Salicylic Acid glucuronidation, % of the control activity (measured at 0 mM) ([2]; 1 mM saccharolactone): 101±5%
- Salicylic Acid glucuronidation, % of the control activity (measured at 0 mM) ([2]; 2 mM saccharolactone): 111±5%
- Salicylic Acid glucuronidation, % of the control activity (measured at 0 mM) ([2]; 5 mM saccharolactone): 83±3 ^a %
- Salicylic Acid glucuronidation, % of the control activity (measured at 0 mM) ([2]; 10 mM saccharolactone): 90±1%
- Salicylic Acid glucuronidation, % of the control activity (measured at 0 mM) ([2]; 20 mM saccharolactone): 85±9 ^a %
- 5-HT glucuronidation, % of the control activity (measured at 0 mM) ([3]; 1 mM saccharolactone (pH-adjusted)): 104±8%
- 5-HT glucuronidation, % of the control activity (measured at 0 mM) ([3]; 2 mM saccharolactone (pH-adjusted)): 93±5%
- 5-HT glucuronidation, % of the control activity (measured at 0 mM) ([3]; 5 mM saccharolactone (pH-adjusted)): 86±4 ^a %
- 5-HT glucuronidation, % of the control activity (measured at 0 mM) ([3]; 10 mM saccharolactone (pH-adjusted)): 87±4 ^a %
- 5-HT glucuronidation, % of the control activity (measured at 0 mM) ([3]; 20 mM saccharolactone (pH-adjusted)): 63±5 ^a %
- Estradiol-17 glucuronidation, % of the control activity (measured at 0 mM) ([4]; 1 mM saccharolactone): 71±4 ^a %
- Estradiol-17 glucuronidation, % of the control activity (measured at 0 mM) ([4]; 2 mM saccharolactone): 81±8%
- Estradiol-17 glucuronidation, % of the control activity (measured at 0 mM) ([4]; 5 mM saccharolactone): 78±7 ^a %
- Estradiol-17 glucuronidation, % of the control activity (measured at 0 mM) ([4]; 10 mM saccharolactone): 68±2%
- Estradiol-17 glucuronidation, % of the control activity (measured at 0 mM) ([4]; 20 mM saccharolactone): 66±6 ^a %
- change in diflunisal phenol glucuronide formation (rat liver microsomes): no change
- increase of diflunisal acyl glucuronide formation (Vmax) (rat liver microsomes): 2 fold
- pH of incubation buffer after adding saccharolactone ([5]; 20 mM saccharolactone in 50 mM potassium phosphate, initially pH 7.5): 6.8
- effect on pH of incubation buffer ([5]; saccharolactone up to 5 mM in 50 mM potassium phosphate pH 7.5): minimal effect on pH
- Estradiol-3 glucuronidation, % of the control activity (measured at 0 mM) (UGT1A1; 5 mM saccharolactone): 92±2%
- Estradiol-3 glucuronidation, % of the control activity (measured at 0 mM) (UGT1A1; 20 mM saccharolactone): 87±5%
- effect on estradiol glucuronidation (UGT1A1; recombinant UGT1A1): no effect

Source: PMC2697495 (The Journal of pharmacy and pharmacology, 2008)
